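Protocol summary: plate cells (96-well), add compound at 5 concentrations, incubate 48 h, interpolate endpoints linearly. GI50 = concentration required for 50% inhibition of growth. At the TGI there is no net growth.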
Columns and labels:
Assay in all cases: NCI-60 cell line screen, 48 h
OVCAR-4 ovarian = test system: OVCAR-4 ovarian
SK-MEL-2 melanoma = test system: SK-MEL-2 melanoma
HL-60(TB) leukemia = test system: HL-60(TB) leukemia
UO-31 renal = test system: UO-31 renal
SF-295 CNS = test system: SF-295 CNS
UACC-62 melanoma = test system: UACC-62 melanoma
MDA-MB-231 breast = test system: MDA-MB-231 breast
786-0 renal = test system: 786-0 renal
SNB-19 CNS = test system: SNB-19 CNS
RPMI-8226 leukemia = test system: RPMI-8226 leukemia
HCT-15 colon = test system: HCT-15 colon
SK-MEL-28 melanoma = test system: SK-MEL-28 melanoma
MDA-MB-435 = test system: MDA-MB-435
K-562 leukemia = test system: K-562 leukemia
MALME-3M melanoma = test system: MALME-3M melanoma
SW-620 colon = test system: SW-620 colon
NCI-H226 lung = test system: NCI-H226 lung
A549 NSCLC = test system: A549 NSCLC
RXF 393 renal = test system: RXF 393 renal
SR leukemia = test system: SR leukemia
U251 CNS = test system: U251 CNS
LOX IMVI melanoma = test system: LOX IMVI melanoma
MOLT-4 leukemia = test system: MOLT-4 leukemia
CCRF-CEM leukemia = test system: CCRF-CEM leukemia
HCC-2998 colon = test system: HCC-2998 colon
EKVX NSCLC = test system: EKVX NSCLC
ACHN renal = test system: ACHN renal
SK-MEL-5 melanoma = test system: SK-MEL-5 melanoma
COLO 205 colon = test system: COLO 205 colon
KM12 colon = test system: KM12 colon
M14 melanoma = test system: M14 melanoma
HT29 colon = test system: HT29 colon
MCF7 breast = test system: MCF7 breast
T-47D breast = test system: T-47D breast
HCT-116 colon = test system: HCT-116 colon
A498 renal = test system: A498 renal
DU-145 prostate = test system: DU-145 prostate
HS 578T breast = test system: HS 578T breast
OVCAR-8 ovarian = test system: OVCAR-8 ovarian
SK-OV-3 ovarian = test system: SK-OV-3 ovarian
SF-539 CNS = test system: SF-539 CNS
NCI-H522 lung = test system: NCI-H522 lung
IGROV1 ovarian = test system: IGROV1 ovarian
PC-3 prostate = test system: PC-3 prostate
SNB-75 CNS = test system: SNB-75 CNS
BT-549 breast = test system: BT-549 breast
TK-10 renal = test system: TK-10 renal
NCI-H460 lung = test system: NCI-H460 lung
SF-268 CNS = test system: SF-268 CNS
HOP-62 NSCLC = test system: HOP-62 NSCLC
OVCAR-5 ovarian = test system: OVCAR-5 ovarian
UACC-257 melanoma = test system: UACC-257 melanoma
OVCAR-3 ovarian = test system: OVCAR-3 ovarian
CAKI-1 renal = test system: CAKI-1 renal
HOP-92 NSCLC = test system: HOP-92 NSCLC
SN12C renal = test system: SN12C renal
NCI/ADR-RES ovarian = test system: NCI/ADR-RES ovarian

Q: How did the GI50 (OVCAR-4 ovarian) turn out when `CCOP(=O)(OCC)OC[C@]12CC[C@@H](C)[C@H](C)C1C1=CC[C@@H]3[C@@]4(C)CCCNC(C)(C)[C@@H]4CC[C@@]3(C)[C@]1(C)CC2` (some centres undefined) was run?
A: 2270 nM

Q: And the TGI (OVCAR-4 ovarian)?
A: 6130 nM

Q: And the GI50 (SK-MEL-2 melanoma)?
A: 4800 nM

Q: And the TGI (SK-MEL-2 melanoma)?
A: 20700 nM

Q: And the GI50 (HL-60(TB) leukemia)?
A: 1670 nM

Q: What about the TGI (HL-60(TB) leukemia) of the same compound?
A: 3470 nM

Q: What about the GI50 (UO-31 renal) of the same compound?
A: 1440 nM

Q: And the TGI (UO-31 renal)?
A: 2930 nM

Q: And the GI50 (SF-295 CNS)?
A: 1780 nM

Q: And the TGI (SF-295 CNS)?
A: 3340 nM

Q: What about the GI50 (UACC-62 melanoma) of the same compound?
A: 1550 nM

Q: What about the TGI (UACC-62 melanoma) of the same compound?
A: 3110 nM

Q: And the GI50 (MDA-MB-231 breast)?
A: 1700 nM

Q: And the TGI (MDA-MB-231 breast)?
A: 3190 nM

Q: What about the GI50 (786-0 renal) of the same compound?
A: 1510 nM

Q: And the TGI (786-0 renal)?
A: 2980 nM

Q: And the GI50 (SNB-19 CNS)?
A: 1690 nM

Q: And the TGI (SNB-19 CNS)?
A: 3240 nM

Q: And the GI50 (RPMI-8226 leukemia)?
A: 2200 nM

Q: What about the TGI (RPMI-8226 leukemia) of the same compound?
A: 5700 nM

Q: What about the GI50 (HCT-15 colon) of the same compound?
A: 1680 nM

Q: And the TGI (HCT-15 colon)?
A: 3170 nM

Q: What about the GI50 (SK-MEL-28 melanoma) of the same compound?
A: 1690 nM

Q: And the TGI (SK-MEL-28 melanoma)?
A: 3110 nM

Q: And the GI50 (MDA-MB-435)?
A: 1760 nM

Q: And the TGI (MDA-MB-435)?
A: 3310 nM

Q: And the GI50 (K-562 leukemia)?
A: 1570 nM

Q: And the TGI (K-562 leukemia)?
A: 3320 nM

Q: What about the GI50 (MALME-3M melanoma) of the same compound?
A: 1650 nM

Q: And the TGI (MALME-3M melanoma)?
A: 3120 nM

Q: And the GI50 (SW-620 colon)?
A: 1820 nM

Q: And the TGI (SW-620 colon)?
A: 3450 nM

Q: What about the GI50 (NCI-H226 lung) of the same compound?
A: 4980 nM

Q: What about the TGI (NCI-H226 lung) of the same compound?
A: 23300 nM

Q: What about the GI50 (A549 NSCLC) of the same compound?
A: 1780 nM

Q: What about the TGI (A549 NSCLC) of the same compound?
A: 3540 nM

Q: What about the GI50 (RXF 393 renal) of the same compound?
A: 1310 nM

Q: And the TGI (RXF 393 renal)?
A: 2690 nM

Q: What about the GI50 (SR leukemia) of the same compound?
A: 1410 nM

Q: What about the TGI (SR leukemia) of the same compound?
A: 3640 nM

Q: What about the GI50 (U251 CNS) of the same compound?
A: 1650 nM

Q: What about the TGI (U251 CNS) of the same compound?
A: 3350 nM

Q: And the GI50 (LOX IMVI melanoma)?
A: 1210 nM

Q: And the TGI (LOX IMVI melanoma)?
A: 2560 nM

Q: And the GI50 (MOLT-4 leukemia)?
A: 1520 nM

Q: What about the TGI (MOLT-4 leukemia) of the same compound?
A: 3510 nM

Q: What about the GI50 (CCRF-CEM leukemia) of the same compound?
A: 2530 nM

Q: What about the TGI (CCRF-CEM leukemia) of the same compound?
A: 8140 nM

Q: And the GI50 (HCC-2998 colon)?
A: 1850 nM

Q: And the TGI (HCC-2998 colon)?
A: 3420 nM

Q: And the GI50 (EKVX NSCLC)?
A: 1530 nM

Q: And the TGI (EKVX NSCLC)?
A: 2960 nM

Q: And the GI50 (ACHN renal)?
A: 1720 nM

Q: And the TGI (ACHN renal)?
A: 3110 nM

Q: And the GI50 (SK-MEL-5 melanoma)?
A: 1690 nM

Q: What about the TGI (SK-MEL-5 melanoma) of the same compound?
A: 3110 nM

Q: What about the GI50 (COLO 205 colon) of the same compound?
A: 2060 nM

Q: And the TGI (COLO 205 colon)?
A: 4230 nM

Q: What about the GI50 (KM12 colon) of the same compound?
A: 1910 nM

Q: What about the TGI (KM12 colon) of the same compound?
A: 3570 nM

Q: What about the GI50 (M14 melanoma) of the same compound?
A: 1740 nM

Q: And the TGI (M14 melanoma)?
A: 3320 nM

Q: And the GI50 (HT29 colon)?
A: 1880 nM

Q: And the TGI (HT29 colon)?
A: 4090 nM

Q: And the GI50 (MCF7 breast)?
A: 1590 nM

Q: What about the TGI (MCF7 breast) of the same compound?
A: 3170 nM

Q: What about the GI50 (T-47D breast) of the same compound?
A: 1600 nM

Q: And the TGI (T-47D breast)?
A: 3780 nM

Q: What about the GI50 (HCT-116 colon) of the same compound?
A: 1690 nM

Q: And the TGI (HCT-116 colon)?
A: 3210 nM

Q: And the GI50 (A498 renal)?
A: 5080 nM

Q: And the TGI (A498 renal)?
A: 21800 nM

Q: What about the GI50 (DU-145 prostate) of the same compound?
A: 1940 nM

Q: And the TGI (DU-145 prostate)?
A: 3710 nM

Q: And the GI50 (HS 578T breast)?
A: 2680 nM

Q: What about the TGI (HS 578T breast) of the same compound?
A: 8090 nM

Q: What about the GI50 (OVCAR-8 ovarian) of the same compound?
A: 1900 nM

Q: What about the TGI (OVCAR-8 ovarian) of the same compound?
A: 3960 nM

Q: What about the GI50 (SK-OV-3 ovarian) of the same compound?
A: 3270 nM

Q: And the TGI (SK-OV-3 ovarian)?
A: 10600 nM

Q: And the GI50 (SF-539 CNS)?
A: 1630 nM

Q: And the TGI (SF-539 CNS)?
A: 3040 nM

Q: What about the GI50 (NCI-H522 lung) of the same compound?
A: 1840 nM

Q: What about the TGI (NCI-H522 lung) of the same compound?
A: 3910 nM

Q: What about the GI50 (IGROV1 ovarian) of the same compound?
A: 1570 nM

Q: And the TGI (IGROV1 ovarian)?
A: 3000 nM

Q: What about the GI50 (PC-3 prostate) of the same compound?
A: 1570 nM

Q: What about the TGI (PC-3 prostate) of the same compound?
A: 3150 nM

Q: What about the GI50 (SNB-75 CNS) of the same compound?
A: 2830 nM

Q: And the TGI (SNB-75 CNS)?
A: 15600 nM

Q: And the GI50 (BT-549 breast)?
A: 4490 nM

Q: What about the TGI (BT-549 breast) of the same compound?
A: 17600 nM

Q: And the GI50 (TK-10 renal)?
A: 3490 nM

Q: What about the TGI (TK-10 renal) of the same compound?
A: 12800 nM

Q: What about the GI50 (NCI-H460 lung) of the same compound?
A: 1830 nM

Q: What about the TGI (NCI-H460 lung) of the same compound?
A: 3460 nM

Q: And the GI50 (SF-268 CNS)?
A: 2510 nM

Q: And the TGI (SF-268 CNS)?
A: 9240 nM

Q: What about the GI50 (HOP-62 NSCLC) of the same compound?
A: 1950 nM

Q: What about the TGI (HOP-62 NSCLC) of the same compound?
A: 3930 nM

Q: What about the GI50 (OVCAR-5 ovarian) of the same compound?
A: 1680 nM

Q: What about the TGI (OVCAR-5 ovarian) of the same compound?
A: 3090 nM

Q: And the GI50 (UACC-257 melanoma)?
A: 2130 nM

Q: What about the TGI (UACC-257 melanoma) of the same compound?
A: 4950 nM

Q: What about the GI50 (OVCAR-3 ovarian) of the same compound?
A: 1720 nM

Q: What about the TGI (OVCAR-3 ovarian) of the same compound?
A: 3330 nM

Q: And the GI50 (CAKI-1 renal)?
A: 1440 nM

Q: What about the TGI (CAKI-1 renal) of the same compound?
A: 2790 nM

Q: And the GI50 (HOP-92 NSCLC)?
A: 1510 nM

Q: And the TGI (HOP-92 NSCLC)?
A: 4510 nM

Q: And the GI50 (SN12C renal)?
A: 1530 nM

Q: And the TGI (SN12C renal)?
A: 2940 nM

Q: And the GI50 (NCI/ADR-RES ovarian)?
A: 1790 nM

Q: What about the TGI (NCI/ADR-RES ovarian) of the same compound?
A: 3390 nM
